ChEMBL document CHEMBL1201862, “PubChem BioAssay data set” (2004)
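Following 48 hours of exposure in 96-well plates, responses at five concentrations were used to interpolate endpoints linearly. GI50: concentration for 50% inhibition of growth.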 Calls of active or inactive are those of the source. Cut-off read from the data, not from the text of the source: active = GI50 up to about 1.1 µM and inactive = higher.

Key:
Assay in all cases: NCI-60 cell line screen, 48 h
SR = system: SR
HT-29 = system: HT-29
OVCAR-4 = system: OVCAR-4
SK-MEL-2 = system: SK-MEL-2
COLO 205 = system: COLO 205
DMS-273 = system: DMS-273
HCT-15 = system: HCT-15
UO-31 = system: UO-31
NCI-H23 = system: NCI-H23
SK-MEL-5 = system: SK-MEL-5
OVCAR-3 = system: OVCAR-3
XF498 = system: XF498
IGROV-1 = system: IGROV-1
CAKI-1 = system: CAKI-1
M14 = system: M14
SK-OV-3 = system: SK-OV-3
HCC 2998 = system: HCC 2998
LXFL 529 = system: LXFL 529
OVCAR-5 = system: OVCAR-5
TK-10 = system: TK-10
SW-620 = system: SW-620
SN12C = system: SN12C
HOP-92 = system: HOP-92
KM12 = system: KM12
OVCAR-8 = system: OVCAR-8
RXF 393 = system: RXF 393
NCI-H522 = system: NCI-H522
Malme-3M = system: Malme-3M
CCRF-CEM = system: CCRF-CEM
SK-MEL-28 = system: SK-MEL-28
KM-20L2 = system: KM-20L2
UACC-62 = system: UACC-62
SF-295 = system: SF-295
U-251 = system: U-251
SNB-19 = system: SNB-19
DLD-1 = system: DLD-1
K562 = system: K562
MOLT-4 = system: MOLT-4
SNB-78 = system: SNB-78
EKVX = system: EKVX
ACHN = system: ACHN
NCI/ADR-RES = system: NCI/ADR-RES
MCF7 = system: MCF7
MDA-MB-435 = system: MDA-MB-435
NCI-H460 = system: NCI-H460
NCI-H226 = system: NCI-H226
A549 = system: A549
SF-539 = system: SF-539
SNB-75 = system: SNB-75
Hs-578T = system: Hs-578T
HOP-62 = system: HOP-62
DU-145 = system: DU-145
SF-268 = system: SF-268
T47D = system: T47D
RPMI-8226 = system: RPMI-8226
HL-60 = system: HL-60
UACC-257 = system: UACC-257
PC-3 = system: PC-3
786-0 = system: 786-0
HCT-116 = system: HCT-116
BT-549 = system: BT-549
LOX IMVI = system: LOX IMVI
MDA-N = system: MDA-N
A498 = system: A498
MDA-MB-231 = system: MDA-MB-231

Q: With `O=C(N/C(=C\c1ccc(Br)cc1)c1nc2ccccc2[nH]1)c1ccccc1` as the molecule, how does the GI50 (SR) read?
A: 18.3 µM (inactive)

Q: What about the GI50 (HT-29) of the same molecule?
A: 18.1 µM (inactive)

Q: What about the GI50 (OVCAR-4) of the same molecule?
A: 13.3 µM (inactive)

Q: And the GI50 (SK-MEL-2)?
A: 16.3 µM (inactive)

Q: And the GI50 (COLO 205)?
A: 18.9 µM (inactive)

Q: And the GI50 (DMS-273)?
A: 24.3 µM (inactive)

Q: And the GI50 (HCT-15)?
A: 16.3 µM

Q: And the GI50 (UO-31)?
A: 15.6 µM (inactive)

Q: And the GI50 (NCI-H23)?
A: 17.1 µM (inactive)

Q: And the GI50 (SK-MEL-5)?
A: 19.8 µM (inactive)

Q: And the GI50 (OVCAR-3)?
A: 19.1 µM (inactive)

Q: What about the GI50 (XF498) of the same molecule?
A: 15.9 µM (inactive)

Q: And the GI50 (IGROV-1)?
A: 24.7 µM (inactive)

Q: What about the GI50 (CAKI-1) of the same molecule?
A: 23.3 µM (inactive)

Q: What about the GI50 (M14) of the same molecule?
A: 18.2 µM (inactive)

Q: What about the GI50 (SK-OV-3) of the same molecule?
A: 34.6 µM (inactive)

Q: And the GI50 (HCC 2998)?
A: 17.2 µM (inactive)

Q: And the GI50 (LXFL 529)?
A: 13.6 µM (inactive)

Q: And the GI50 (OVCAR-5)?
A: 14.9 µM (inactive)

Q: What about the GI50 (TK-10) of the same molecule?
A: 30.1 µM (inactive)

Q: And the GI50 (SW-620)?
A: 16.1 µM (inactive)

Q: What about the GI50 (SN12C) of the same molecule?
A: 18.4 µM (inactive)

Q: And the GI50 (HOP-92)?
A: 11.6 µM (inactive)

Q: And the GI50 (KM12)?
A: 17.5 µM (inactive)

Q: And the GI50 (OVCAR-8)?
A: 21 µM (inactive)

Q: And the GI50 (RXF 393)?
A: 16.4 µM (inactive)

Q: What about the GI50 (NCI-H522) of the same molecule?
A: 14.5 µM (inactive)

Q: And the GI50 (Malme-3M)?
A: 22.9 µM (inactive)

Q: What about the GI50 (CCRF-CEM) of the same molecule?
A: 19.9 µM (inactive)

Q: What about the GI50 (SK-MEL-28) of the same molecule?
A: 15.8 µM (inactive)

Q: And the GI50 (KM-20L2)?
A: 15.1 µM (inactive)

Q: And the GI50 (UACC-62)?
A: 18.8 µM (inactive)

Q: And the GI50 (SF-295)?
A: 28 µM (inactive)

Q: And the GI50 (U-251)?
A: 17.3 µM (inactive)

Q: What about the GI50 (SNB-19) of the same molecule?
A: 18.4 µM (inactive)

Q: And the GI50 (DLD-1)?
A: 17.5 µM (inactive)

Q: What about the GI50 (K562) of the same molecule?
A: 15.8 µM (inactive)

Q: And the GI50 (MOLT-4)?
A: 17.6 µM (inactive)

Q: What about the GI50 (SNB-78) of the same molecule?
A: 21.9 µM (inactive)

Q: `CCCCCCCCCCCCCCCCCCNc1ccn(C2OC(COP(=O)(O)OCC3OC(n4ccc(N)nc4=O)C(O)C3O)C(O)C2O)c(=O)n1` (stereo not drawn) was tested. Which GI50 (SR) did it give?
A: > 37.6 µM (inactive)

Q: And the GI50 (EKVX)?
A: > 100 µM (inactive)

Q: What about the GI50 (HT-29) of the same molecule?
A: 37.7 µM (inactive)

Q: And the GI50 (OVCAR-4)?
A: > 72.8 µM (inactive)

Q: And the GI50 (SK-MEL-2)?
A: > 100 µM (inactive)

Q: What about the GI50 (COLO 205) of the same molecule?
A: 47.3 µM (inactive)

Q: And the GI50 (ACHN)?
A: 29.9 µM (inactive)

Q: And the GI50 (NCI/ADR-RES)?
A: 47.1 µM (inactive)

Q: What about the GI50 (HCT-15) of the same molecule?
A: 55.6 µM

Q: And the GI50 (MCF7)?
A: 45.2 µM (inactive)

Q: And the GI50 (MDA-MB-435)?
A: > 73.1 µM (inactive)

Q: What about the GI50 (UO-31) of the same molecule?
A: 42.4 µM (inactive)

Q: And the GI50 (NCI-H460)?
A: 14.3 µM (inactive)

Q: What about the GI50 (NCI-H226) of the same molecule?
A: > 100 µM (inactive)

Q: And the GI50 (NCI-H23)?
A: 27.5 µM (inactive)

Q: What about the GI50 (SK-MEL-5) of the same molecule?
A: > 100 µM (inactive)

Q: What about the GI50 (A549) of the same molecule?
A: 8.59 µM (inactive)

Q: And the GI50 (SF-539)?
A: > 100 µM (inactive)

Q: And the GI50 (OVCAR-3)?
A: > 100 µM (inactive)

Q: And the GI50 (SNB-75)?
A: > 100 µM (inactive)

Q: And the GI50 (Hs-578T)?
A: > 100 µM (inactive)

Q: What about the GI50 (IGROV-1) of the same molecule?
A: 30.3 µM (inactive)

Q: And the GI50 (HOP-62)?
A: 29.6 µM (inactive)

Q: And the GI50 (CAKI-1)?
A: 67.6 µM (inactive)

Q: And the GI50 (DU-145)?
A: 44.2 µM (inactive)

Q: And the GI50 (M14)?
A: 32 µM (inactive)

Q: And the GI50 (SF-268)?
A: 63.8 µM (inactive)

Q: What about the GI50 (T47D) of the same molecule?
A: > 78.3 µM (inactive)

Q: And the GI50 (RPMI-8226)?
A: > 100 µM (inactive)

Q: What about the GI50 (HL-60) of the same molecule?
A: 10.2 µM (inactive)

Q: And the GI50 (SK-OV-3)?
A: > 86.9 µM (inactive)

Q: What about the GI50 (HCC 2998) of the same molecule?
A: 38.2 µM (inactive)

Q: And the GI50 (UACC-257)?
A: > 100 µM (inactive)

Q: What about the GI50 (OVCAR-5) of the same molecule?
A: 98.6 µM (inactive)

Q: What about the GI50 (TK-10) of the same molecule?
A: > 100 µM (inactive)

Q: What about the GI50 (PC-3) of the same molecule?
A: 39.8 µM (inactive)

Q: And the GI50 (SW-620)?
A: > 89.7 µM (inactive)

Q: What about the GI50 (SN12C) of the same molecule?
A: 65 µM (inactive)

Q: What about the GI50 (HOP-92) of the same molecule?
A: > 51.3 µM (inactive)

Q: And the GI50 (KM12)?
A: > 89.1 µM (inactive)

Q: What about the GI50 (OVCAR-8) of the same molecule?
A: 20 µM (inactive)

Q: What about the GI50 (786-0) of the same molecule?
A: 44.7 µM (inactive)

Q: What about the GI50 (HCT-116) of the same molecule?
A: 18.8 µM (inactive)

Q: And the GI50 (RXF 393)?
A: > 100 µM (inactive)

Q: What about the GI50 (NCI-H522) of the same molecule?
A: > 37.8 µM (inactive)

Q: And the GI50 (Malme-3M)?
A: > 50 µM (inactive)

Q: And the GI50 (BT-549)?
A: > 49.5 µM (inactive)

Q: What about the GI50 (CCRF-CEM) of the same molecule?
A: 16.1 µM (inactive)

Q: And the GI50 (SK-MEL-28)?
A: > 92 µM (inactive)

Q: What about the GI50 (LOX IMVI) of the same molecule?
A: 16.5 µM (inactive)

Q: What about the GI50 (UACC-62) of the same molecule?
A: > 93.3 µM (inactive)

Q: What about the GI50 (SF-295) of the same molecule?
A: > 100 µM (inactive)

Q: What about the GI50 (MDA-N) of the same molecule?
A: > 100 µM (inactive)

Q: And the GI50 (U-251)?
A: 57.8 µM (inactive)

Q: And the GI50 (SNB-19)?
A: 39.7 µM (inactive)

Q: And the GI50 (A498)?
A: > 100 µM (inactive)

Q: And the GI50 (K562)?
A: 65.8 µM (inactive)

Q: And the GI50 (MOLT-4)?
A: 2.45 µM (inactive)

Q: And the GI50 (MDA-MB-231)?
A: > 100 µM (inactive)
